Data from patent publication US9662404B2, “Compositions and methods for the delivery of molecules into live cells” (The Texas A&M University System, priority 2013, dated 2017).
Ends that are not written are not given here.

Columns and labels:
HeLa cells = test: Quantitative determination of peptide uptake inside cells (bulk fluorescence of cell lysates); format: cell-based; conditions: 1-10 μM, 1 h
Description: HeLa cells were seeded in a 48 well dish, grown and washed as described above. For the peptide uptake experiment, each well was incubated for 1 h with varying concentration of acTAT, TAT or dTAT (range: 5-25 μM peptide concentration). For the titration experiment, cells were incubated with dTAT (5 μM) and varying concentrations of DEAC-K9 (range: 1-20 μM). Cells were then washed with PBS and nrL-15 and imaged. Multiple images for each condition were obtained and processed. To lyse cells, nrL-15 was removed from the wells and a total of 100 μL of HeLa cell lysis Buffer (50 mM Tris pH 7.5, 2 mM EDTA, 2 mM DTT, 0.1% Triton X-100) was incubated with cells for 5 min. The cells were lysed and scraped off the dish and pipetted into a 1.5 mL microcentrifuge tube. The cell lysates were centrifuged at 13.2K RPM for 25 min. […] The fluorescence from the cell lysates were measured using a plate reader equipped with a fluorescence module (Ex==525, Em=580-640 nm) (GloMax®-Multi+ Detection System, Promega, Fitchburg, Wis.). For the titration experiment, 80 μL of supernatant was diluted to a total volume of 100 μL and the bulk fluorescence was measured using a SLM-8000C fluorometer (Ex=435 nm, Em=465-475 nm) (SLM Instruments, Bath, UK). The fluorescence emission was averaged and recorded. […] The absorbance at 600 nm was measured using the plate reader. […]

[1] = test system: HeLa transfected with the pCALNL-GFP plasmid; format: cell-based; conditions: delivery peptide 5 μM in the presence of TAT-Cre 1 μM, 1 h
Description: The number of cells in the images was approximately the same as assessed by bright field microscopy (1,000 cells/experiment, experiments in triplicate, average and standard deviations represented). Scale bars, 100 μM.
To further confirm that functional proteins can penetrate cells upon incubation with dTAT, delivery of Cre recombinase was tested. In this assay, Cre induces recombination of a loxP-STOP-loxP sequence upstream of the egfp gene of a reporter plasmid.

cells = test: Whole-genome microarray analysis after dTAT treatment; format: cell-based; conditions: 5 μM, 1 h; analysis immediately, 1 h or 24 h after treatment
Description: To better determine the effect of dTAT exposure on a cell, a whole-genome microarray analysis was performed on cells treated with 5 μM dTAT for 1 h to determine whether transcriptional patterns are influenced. Analysis was performed immediately, 1 h, or 24 h after dTAT treatment. […] The straight lines represent 2-fold intensity change cut-offs.

HeLa or NIH 3T3 cells = test: dTAT-mediated delivery of EGFP by co-incubation; format: cell-based; conditions: EGFP 10 μM and dTAT 5 μM, 1 h
Description: dTAT, DEAC-K9 and, SNAP-Surface® 488 are relatively small molecules. It was therefore addressed whether dTAT-mediated endosomal leakage could deliver large proteins into the cytosol of cells. For this assay, EGFP (26 kDa) was chosen as a model, since this protein is fluorescent only when properly folded. EGFP and dTAT were incubated for 1 h with cells and the protein distribution was examined by fluorescence. […] While protein degradation might take place during delivery, this assay establishes that a population of folded protein is delivered.
Images were acquired as described before.

[2] = test system: HeLa cells expressing SNAPH2B; test: Endosomal leakage efficiency with SNAP-Surface 488; conditions: 2.5 μM dTAT with 5 μM SNAP-Surface 488, 1 h
Description: HeLa cells were incubated with 5 μM SNAP-Surface® 488 for 1 h, washed and imaged. […] It should be noted that SNAP-Surface® 488 fluorescence is quenched (80%) before it reacts with the SNAP fusion tag.
HeLa cells were seeded in 8-well dishes, grown and washed as described in the prior section. Cells were then co-incubated with 5 M delivery peptide and with the cargo at the corresponding concentration for 1 h at 37° C. Cells were washed 3 times with PBS and nrL-15 and placed on the microscope. Images were acquired as described before. For transfection and expression of SNAP-H2B and TagCFP-mito, plasmids were mixed with Lipofectamine™ 2000 reagent in opti-MEM media and incubated at room temperature for 30 min. The DNA complex was added to previously seeded HeLa cells (80% confluent) on an 8-well dish and cells were kept at 37° C. for 24 h.

EGFP = EGFP (Aequorea victoria, UniProt P42212, F64L/H231L/S65T); conditions: EGFP 1 μM, dTAT 5 μM, excitation 488 nm
Description: Fluorescence emission spectra were obtained using an SLM-8000C fluorometer upgraded with the phoenix package (ISS, Champaign, Ill.) and Vinci v.1.6 PC software (ISS). The experiments were conducted using a quartz cuvette at room temperature. The samples were excited at 488 nm (slit width=1 mm) and the fluorescence emission was scanned from 500 to 650 nm (slit width=1 mm). All samples (EGFP (1 μM) and dTAT (5 μM)) were prepared using nrL-15.

Substance: (CK(TMR)TAT)2 (CK(TMR)RKKRRQRRRG; also: dimer) [dTAT]
- overall amount of peptide inside cells (cytosol+endosomes), bulk fluorescence of lysates (HeLa cells): almost linearly correlated to the concentration of dTAT administered extracellularly
- percentage of EGFP+ cells [1]: 47%
- transcriptional response on a whole-genome scale (cells): minimal transcriptional perturbations
- cells with EGFP distributed into the cytosol and nucleus (HeLa or NIH 3T3 cells): more than 90%
- toxicity during EGFP delivery (HeLa or NIH 3T3 cells): without observable toxicity
- cytosolic release [2]: does not result in significant cytosolic release
- binding to EGFP (EGFP): does not bind to EGFP
